Experimental data from patent publication US20110200535A1, “DAA-PYRIDINE AS PERIPHERAL BENZODIAZEPINE RECEPTOR LIGAND FOR DIAGNOSTIC IMAGING AND PHARMACEUTICAL TREATMENT” (BAYER SCHERING PHARMA AKTIENGESELLSCHAFT, priority 2008, published 2011).

What was measured:
[1] = cited from earlier work
PBR = PBR (Homo sapiens, UniProt P30536); assay: PBR binding, [^3H]-PK11195
[2] = molecular target: CBR (central diazepine receptor); assay: CBR binding, [^3H]-Flumazenil
[3] = molecular target: T1, peripheral benzodiazepine receptor (PBR) (Rattus norvegicus, UniProt P16257); assay: Ex vivo autoradiography of brain sections, rat kainic acid induced epilepsy model; type: in vivo; conditions: rat kainic acid model, 30 min ex vivo autoradiography
T1 construct: from tissue; host or cells: rat brain (hippocampus, cerebellum) after i.v. tracer injection
Procedure: Using a rat kainic acid induced epilepsy model and respective sham controls the accumulation of [^18F]-2d and [^18F]-5d was visualized ex vivo. In brief, epilepsy was induced in rats by injecting kainic acid i.p. At day eight after the start of the kainic acid treatment [^18F]-2d and [^18F]-5d were injected into the tail vein of the rats and their sham treated controls (PBS instead of kainic acid) at a dose of 25.8-35.8 MBq (approximately 1.0 μg) per rat. Thirty minutes after intravenous injection the rats were sacrificed, the brains were taken out, snap frozen and sliced transversally in a cryostat. The slices were exposed to PhosphoImager plates over night. The resulting autoradiographic signals were analyzed qualitatively and quantitatively (FIG. 2.1 A and C, 2.2 A and C). […] To determine the specificity of the [^18F]-2d and [^18F]-5d binding, kainic acid treated rats were co-injected with [^19F]-2e and [^19F]-5e, respectively.
The autoradiographic signals were quantified. The signal intensity in a hippocampal region of interest (ROI) was measured and compared to a ROI in the cerebellum, that was used as reference region.

Chain of PBR (P30536 whole entry, species assumed): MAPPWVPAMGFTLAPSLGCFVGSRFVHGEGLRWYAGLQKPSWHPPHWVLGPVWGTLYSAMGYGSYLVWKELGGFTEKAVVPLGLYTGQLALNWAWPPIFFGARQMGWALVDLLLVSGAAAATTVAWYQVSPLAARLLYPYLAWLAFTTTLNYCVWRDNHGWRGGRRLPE

Ki (PBR) [nM]	Ki [2] [nM]	Hipp/Cereb ratio (signal-to-background ratio, hippocampus/cerebellum) [3]	SMILES	Brain uptake, standard uptake value (SUV), washout ([1]; after 60 min)	Brain uptake, standard uptake value (SUV) ([1]; at 5 min)
1.5 ± 0.15	> 20000	–	COc1ccc(OCCF)c(CN(C(C)=O)c2cc(F)ccc2Oc2ccccc2)c1 [[^19F]-FEDAA1106, reference compound]	–	–
3.6 ± 1.3	> 20000	–	COc1ccc(Oc2ncccc2N(Cc2cc(OC)ccc2OCCF)C(C)=O)cc1 [[^19F]-2e, N-[2-(2-fluoroethoxy)-5-methoxybenzyl]-N-[2-(4-methoxyphenoxy)pyridin-3-yl]acetamide]	–	–
2.57 ± 0.06	> 20000	5.6±1.8	COc1ccc(OCCF)c(CN(C(C)=O)c2cccnc2Oc2cccc(C)c2C)c1 [[^19F]-5e, N-[2-(2,3-dimethylphenoxy)pyridin-3-yl]-N-[2-(2-fluoroethoxy)-5-methoxybenzyl]acetamide]	–	–

The remaining lines, values behind:

SMILES	Ki (PBR) [nM]	Ki [2] [nM]	Hipp/Cereb ratio (signal-to-background ratio, hippocampus/cerebellum) [3]	Brain uptake, standard uptake value (SUV), washout ([1]; after 60 min)	Brain uptake, standard uptake value (SUV) ([1]; at 5 min)
CC(=O)N(Cc1ccccc1OCC[18F])c1cnccc1Oc1ccccc1 [[^18F]-FEPPA]	–	–	–	0.35	0.6
CCN(CC)C(=O)Cc1c(-c2ccc(OCCF)cc2)nn2c(C)cc(C)nc12 [[^19F]-DPA-714, reference compound]	1.46 ± 0.12	> 20000	–	–	–
